Data from PubChem BioAssay (NCI).
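A five-concentration, 48-hour dose response in 96-well plates underlies each endpoint, interpolated linearly between surrounding concentrations. Here, GI50 denotes the concentration required for 50% inhibition of growth. The concentration for full growth arrest is given as TGI.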

Key:
Assay in all cases: inhibition of tumour cell growth, NCI panel, 48 h
786-0 renal = system: 786-0 renal
A498 renal = system: A498 renal
A549 NSCLC = system: A549 NSCLC
ACHN renal = system: ACHN renal
BT-549 breast = system: BT-549 breast
CAKI-1 renal = system: CAKI-1 renal
CCRF-CEM leukemia = system: CCRF-CEM leukemia
COLO 205 colon = system: COLO 205 colon
DU-145 prostate = system: DU-145 prostate
EKVX NSCLC = system: EKVX NSCLC
HCC-2998 colon = system: HCC-2998 colon
HCT-116 colon = system: HCT-116 colon
HCT-15 colon = system: HCT-15 colon
HL-60(TB) leukemia = system: HL-60(TB) leukemia
HOP-62 NSCLC = system: HOP-62 NSCLC
HOP-92 NSCLC = system: HOP-92 NSCLC
HS 578T breast = system: HS 578T breast
HT29 colon = system: HT29 colon
IGROV1 ovarian = system: IGROV1 ovarian
K-562 leukemia = system: K-562 leukemia
KM12 colon = system: KM12 colon
LOX IMVI melanoma = system: LOX IMVI melanoma
M14 melanoma = system: M14 melanoma
MALME-3M melanoma = system: MALME-3M melanoma
MCF7 breast = system: MCF7 breast
MDA-MB-231 breast = system: MDA-MB-231 breast
MDA-MB-435 = system: MDA-MB-435
MDA-MB-468 breast = system: MDA-MB-468 breast
MOLT-4 leukemia = system: MOLT-4 leukemia
NCI-H226 lung = system: NCI-H226 lung
NCI-H23 lung = system: NCI-H23 lung
NCI-H460 lung = system: NCI-H460 lung
NCI-H522 lung = system: NCI-H522 lung
NCI/ADR-RES ovarian = system: NCI/ADR-RES ovarian
OVCAR-3 ovarian = system: OVCAR-3 ovarian
OVCAR-4 ovarian = system: OVCAR-4 ovarian
OVCAR-5 ovarian = system: OVCAR-5 ovarian
OVCAR-8 ovarian = system: OVCAR-8 ovarian
PC-3 prostate = system: PC-3 prostate
RPMI-8226 leukemia = system: RPMI-8226 leukemia
SF-268 CNS = system: SF-268 CNS
SF-295 CNS = system: SF-295 CNS
SF-539 CNS = system: SF-539 CNS
SK-MEL-2 melanoma = system: SK-MEL-2 melanoma
SK-MEL-28 melanoma = system: SK-MEL-28 melanoma
SK-MEL-5 melanoma = system: SK-MEL-5 melanoma
SK-OV-3 ovarian = system: SK-OV-3 ovarian
SN12C renal = system: SN12C renal
SNB-19 CNS = system: SNB-19 CNS
SNB-75 CNS = system: SNB-75 CNS
SR leukemia = system: SR leukemia
SW-620 colon = system: SW-620 colon
T-47D breast = system: T-47D breast
TK-10 renal = system: TK-10 renal
U251 CNS = system: U251 CNS
UACC-257 melanoma = system: UACC-257 melanoma
UACC-62 melanoma = system: UACC-62 melanoma
UO-31 renal = system: UO-31 renal

## CC12OOC(C)(OO1)C2CCC(=O)OCCNc1ccnc2cc(Cl)ccc12 (stereo unspecified)
786-0 renal
  GI50: 4.95 µM
  TGI: 16.5 µM
A498 renal
  GI50: > 18.3 µM
  TGI: > 18.3 µM
A549 NSCLC
  GI50: 4.17 µM
  TGI: 12.2 µM
ACHN renal
  GI50: 1.59 µM
  TGI: 3.81 µM
BT-549 breast
  GI50: > 18.3 µM
  TGI: > 18.3 µM
CAKI-1 renal
  GI50: 3.21 µM
  TGI: 5.96 µM
CCRF-CEM leukemia
  GI50: 5.36 µM
  TGI: 17.5 µM
COLO 205 colon
  GI50: 3.57 µM
  TGI: 10.8 µM
DU-145 prostate
  GI50: 3.47 µM
  TGI: 6.32 µM
EKVX NSCLC
  GI50: > 18.3 µM
  TGI: > 18.3 µM
HCC-2998 colon
  GI50: > 18.3 µM
  TGI: > 18.3 µM
HCT-116 colon
  GI50: 3.59 µM
  TGI: 8.67 µM
HCT-15 colon
  GI50: 2.87 µM
  TGI: 5.47 µM
HL-60(TB) leukemia
  GI50: > 18.3 µM
  TGI: > 18.3 µM
HOP-62 NSCLC
  GI50: > 18.3 µM
  TGI: > 18.3 µM
HOP-92 NSCLC
  GI50: 2.72 µM
  TGI: 7.92 µM
HS 578T breast
  GI50: > 18.3 µM
  TGI: > 18.3 µM
HT29 colon
  GI50: 3.46 µM
  TGI: 8.62 µM
IGROV1 ovarian
  GI50: 6.59 µM
  TGI: > 18.3 µM
K-562 leukemia
  GI50: 4.11 µM
  TGI: 11.8 µM
KM12 colon
  GI50: > 18.3 µM
  TGI: > 18.3 µM
LOX IMVI melanoma
  GI50: 2.87 µM
  TGI: 5.39 µM
M14 melanoma
  GI50: 10.8 µM
  TGI: > 18.3 µM
MALME-3M melanoma
  GI50: 3.1 µM
  TGI: 5.98 µM
MCF7 breast
  GI50: 7.76 µM
  TGI: > 18.3 µM
MDA-MB-231 breast
  GI50: > 18.3 µM
  TGI: > 18.3 µM
MDA-MB-435
  GI50: 18.3 µM
  TGI: > 18.3 µM
MDA-MB-468 breast
  GI50: 2.87 µM
  TGI: 7.73 µM
MOLT-4 leukemia
  GI50: 16.8 µM
  TGI: > 18.3 µM
NCI-H226 lung
  GI50: 4.19 µM
  TGI: 14.2 µM
NCI-H23 lung
  GI50: > 18.3 µM
  TGI: > 18.3 µM
NCI-H460 lung
  GI50: 6.3 µM
  TGI: > 18.3 µM
NCI-H522 lung
  GI50: 3.23 µM
  TGI: 6.53 µM
NCI/ADR-RES ovarian
  GI50: > 18.3 µM
  TGI: > 18.3 µM
OVCAR-3 ovarian
  GI50: 3.71 µM
  TGI: 7.21 µM
OVCAR-4 ovarian
  GI50: 3.5 µM
  TGI: 7.42 µM
OVCAR-5 ovarian
  GI50: > 18.3 µM
  TGI: > 18.3 µM
OVCAR-8 ovarian
  GI50: 16.8 µM
  TGI: > 18.3 µM
PC-3 prostate
  GI50: > 18.3 µM
  TGI: > 18.3 µM
RPMI-8226 leukemia
  GI50: 8.81 µM
  TGI: > 18.3 µM
SF-268 CNS
  GI50: > 18.3 µM
  TGI: > 18.3 µM
SF-295 CNS
  GI50: > 18.3 µM
  TGI: > 18.3 µM
SF-539 CNS
  GI50: > 18.3 µM
  TGI: > 18.3 µM
SK-MEL-2 melanoma
  GI50: > 18.3 µM
  TGI: > 18.3 µM
SK-MEL-28 melanoma
  GI50: > 18.3 µM
  TGI: > 18.3 µM
SK-MEL-5 melanoma
  GI50: > 18.3 µM
  TGI: > 18.3 µM
SK-OV-3 ovarian
  GI50: > 18.3 µM
  TGI: > 18.3 µM
SN12C renal
  GI50: > 18.3 µM
  TGI: > 18.3 µM
SNB-19 CNS
  GI50: > 18.3 µM
  TGI: > 18.3 µM
SNB-75 CNS
  GI50: > 18.3 µM
  TGI: > 18.3 µM
SR leukemia
  GI50: 3.35 µM
  TGI: 8.03 µM
SW-620 colon
  GI50: 5.83 µM
  TGI: > 18.3 µM
T-47D breast
  GI50: > 18.3 µM
  TGI: > 18.3 µM
TK-10 renal
  GI50: 2.69 µM
  TGI: 6.03 µM
U251 CNS
  GI50: > 18.3 µM
  TGI: > 18.3 µM
UACC-257 melanoma
  GI50: > 18.3 µM
  TGI: > 18.3 µM
UACC-62 melanoma
  GI50: > 18.3 µM
  TGI: > 18.3 µM
UO-31 renal
  GI50: 2.57 µM
  TGI: 4.94 µM
